Our source for the Ki values is patent publication US11014911B2, “CDK2 inhibitors” (Pfizer Inc., priority 2019, dated 2021).

The target in experiment [1] is CDK2/Cyclin E1 full length (Homo sapiens (Human), UniProt P24941). The experiment in a line: CDK2/Cyclin E1 full length mobility shift assay. In kind it is biochemical.
Experimental: Cdk2/Cyclin E1 Full Length Mobility Shift Assay
Wild-type CDK2/wild-type full length Cyclin E1 enzyme complex was produced in-house (baculoviral expression, LJIC-2080/LJIC-2103) and phosphorylated by CDK7/Cyclin H1/Matl enzyme complex with CDK2:CDK7 ratio of 50:1 (concentration mg/mL) in the presence of 10 mM MgCl2 and 5 mM ATP at room temperature for one hour. […] The assay was initiated with the addition of ATP, following a fifteen minutes pre-incubation of enzyme and inhibitor at room temperature in the reaction mixture. The reaction was stopped after 45 minutes at room temperature by the addition of 50 μL of 80 mM EDTA.
The target in another experiment is GSK3β (H350L) (Homo sapiens (Human), UniProt P49841). Conditions: read-out: GSK3β Ki.
Chain of GSK3β (H350L) (P49841 whole entry, stated change not applied): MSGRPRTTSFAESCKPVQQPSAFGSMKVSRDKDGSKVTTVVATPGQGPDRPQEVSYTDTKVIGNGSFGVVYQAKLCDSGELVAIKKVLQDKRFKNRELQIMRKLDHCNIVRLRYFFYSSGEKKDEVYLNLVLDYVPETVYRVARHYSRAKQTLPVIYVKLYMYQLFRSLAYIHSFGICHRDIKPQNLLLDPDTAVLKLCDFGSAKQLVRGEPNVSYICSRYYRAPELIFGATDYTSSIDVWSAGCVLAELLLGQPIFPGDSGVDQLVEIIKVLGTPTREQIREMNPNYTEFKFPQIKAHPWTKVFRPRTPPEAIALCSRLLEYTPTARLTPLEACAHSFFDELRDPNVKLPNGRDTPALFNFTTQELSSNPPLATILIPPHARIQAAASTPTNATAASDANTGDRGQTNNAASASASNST

Experimental for GSK3β (H350L): The assay was initiated with the addition of ATP, following 15 minutes pre-incubation of enzyme and inhibitor at room temperature in the reaction mixture. The reaction was stopped after 30 minutes at room temperature by the addition of 50 μL of 80 mM EDTA.

In the case of `CCCNC(=O)O[C@H]1CC[C@@H](c2cc(NC(=O)Cc3cnc(C)s3)n[nH]2)C1` [Example 22], the inhibition constant (Ki) (in general, the equilibrium dissociation constant of an inhibitor or competing ligand from its target) in experiment [1] is 0.23 nM; at GSK3β (H350L) it was > 191 nM.
Taken in the same sequence, the figures for `CCCNC(=O)O[C@H]1CC[C@@H](c2cc(NC(=O)Cc3ccc4[nH]c(C)nc4c3)n[nH]2)C1` [Example 23] were 0.11 nM and 2.45 nM.
The matching figures for `O=C(Cc1cc(F)cc(F)c1)Nc1cc([C@@H]2CC[C@H](OC(=O)N[C@H]3CC[C@@H](O)CC3)C2)[nH]n1` [Example 27]: 0.24 nM and 3.57 nM.
The matching figures for `O=C(Cc1cc(F)cc(F)c1)Nc1cc([C@@H]2CC[C@H](OC(=O)N[C@H]3CC[C@H](O)CC3)C2)[nH]n1` [Example 28]: 0.18 nM and 4.5 nM.
As to `CC[C@@H](C)NC(=O)O[C@H]1CC[C@@H](c2cc(NC(=O)Cc3ccno3)n[nH]2)C1` [Example 29], the figures for the Ki (in experiment [1]; at GSK3β (H350L)) were 0.16 nM and 19.7 nM, respectively.
On to `CC[C@H](C)NC(=O)O[C@H]1CC[C@@H](c2cc(NC(=O)Cc3ccno3)n[nH]2)C1` [Example 30], for which the inhibition constant Ki in experiment [1] turned out to be 0.16 nM; at GSK3β (H350L), 20.6 nM.
`CC[C@H](C)NC(=O)O[C@H]1CC[C@@H](c2cc(NC(=O)c3cnnn3C)n[nH]2)C1` [Example 31]: the Ki was found to be 0.16 nM in experiment [1] and 45.1 nM at GSK3β (H350L).
Regarding `CC[C@H](C)NC(=O)O[C@@H]1CC[C@H](c2cc(NC(=O)Cc3cc(C)no3)n[nH]2)C1` [Example 32], the Ki in experiment [1] worked out at 0.36 nM; at GSK3β (H350L) it was 35.7 nM.
For the molecule `CC[C@H](C)NC(=O)O[C@@H]1CC[C@H](c2cc(NC(=O)Cc3cnc(C)s3)n[nH]2)C1` [Example 33], the inhibition constant (Ki) in experiment [1] was 0.17 nM; on GSK3β (H350L) it was 26.4 nM.
The matching figures for `CC[C@H](C)NC(=O)O[C@@H]1CC[C@H](c2cc(NC(=O)Cc3cnc(C)cn3)n[nH]2)C1` [Example 34]: 0.33 nM and 31.2 nM.
Taken in the same sequence, the figures for `CC[C@H](C)NC(=O)O[C@@H]1CC[C@H](c2cc(NC(=O)Cc3ccc(C)nc3)n[nH]2)C1` [Example 35] were 0.22 nM and 12.5 nM.
The matching figures for `CC[C@H](C)NC(=O)O[C@@H]1CC[C@H](c2cc(NC(=O)Cc3cncs3)n[nH]2)C1` [Example 36]: 0.17 nM and 21.3 nM.
`CC[C@H](C)NC(=O)O[C@@H]1CC[C@H](c2cc(NC(=O)Cc3ccnc(OC)c3)n[nH]2)C1` [Example 37]: the inhibition constant Ki turned out to be 0.19 nM in experiment [1] and 23.4 nM on GSK3β (H350L).
Taken in the same sequence, the figures for `CC[C@H](C)NC(=O)O[C@@H]1CC[C@H](c2cc(NC(=O)Cc3ccccc3)n[nH]2)C1` [Example 38] were 0.18 nM and 69.7 nM.
Taken in the same sequence, the figures for `CC[C@H](C)NC(=O)O[C@@H]1CC[C@H](c2cc(NC(=O)Cc3cnc4ncnn4c3)n[nH]2)C1` [Example 39] were 0.14 nM and 23.9 nM.
With `CC[C@H](C)NC(=O)O[C@@H]1CC[C@H](c2cc(NC(=O)Cc3ccccc3S(=O)(=O)CC)n[nH]2)C1` [Example 40], the figures for the Ki (in experiment [1]; on GSK3β (H350L)) were 0.24 nM and 64.5 nM, respectively.
The matching figures for `CC[C@H](C)NC(=O)O[C@@H]1CC[C@H](c2cc(NC(=O)c3cc(OC)nn3C)n[nH]2)C1` [Example 41]: 0.2 nM and 343 nM.
`CC[C@H](C)NC(=O)O[C@@H]1CC[C@H](c2cc(NC(=O)c3ccnn3C)n[nH]2)C1` [Example 42]: the inhibition constant (Ki) in experiment [1] amounted to 0.05 nM; on GSK3β (H350L) it was 34.4 nM.
As for `CC[C@H](C)NC(=O)O[C@@H]1CC[C@H](c2cc(NC(=O)c3ccnc4ncsc34)n[nH]2)C1` [Example 43], the inhibition constant Ki was 0.04 nM in experiment [1] and 45.4 nM on GSK3β (H350L).
Taken in the same sequence, the figures for `CC[C@H](C)NC(=O)O[C@@H]1CC[C@H](c2cc(NC(=O)Cc3ccc(OC)cc3S(C)(=O)=O)n[nH]2)C1` [Example 44] were 0.21 nM and 47.8 nM.
The matching figures for `CC[C@H](C)NC(=O)O[C@@H]1CC[C@H](c2cc(NC(=O)Cc3ccc(C)cc3S(C)(=O)=O)n[nH]2)C1` [Example 45]: 0.11 nM and 61.4 nM.
As for `CC[C@H](C)NC(=O)O[C@@H]1CC[C@H](c2cc(NC(=O)Cc3ccc4ncc(C)n4n3)n[nH]2)C1` [Example 46], the inhibitory constant (Ki) was 0.18 nM in experiment [1] and 20.6 nM at GSK3β (H350L).
Turning to `CC[C@H](C)NC(=O)O[C@@H]1CC[C@H](c2cc(NC(=O)Cc3ccc4nc(C)cn4n3)n[nH]2)C1` [Example 47], the inhibition constant Ki in experiment [1] was found to be 0.11 nM; at GSK3β (H350L), 10.2 nM.
The matching figures for `CC[C@H](C)NC(=O)O[C@@H]1CC[C@H](c2cc(NC(=O)Cc3ccc4c(cnn4C)c3)n[nH]2)C1` [Example 48]: 0.17 nM and 9.58 nM.
The matching figures for `CC[C@H](C)NC(=O)O[C@@H]1CC[C@H](c2cc(NC(=O)Cc3cc(OC)ccc3S(C)(=O)=O)n[nH]2)C1` [Example 50]: 0.17 nM and 117 nM.
The matching figures for `CC[C@H](C)NC(=O)O[C@@H]1CC[C@H](c2cc(NC(=O)c3ccnn3CCOC)n[nH]2)C1` [Example 51]: 0.2 nM and 54 nM.
Regarding `CC[C@H](C)NC(=O)O[C@@H]1CC[C@H](c2cc(NC(=O)Cc3cc(O)ncc3S(C)(=O)=O)n[nH]2)C1` [Example 52], the inhibitory constant (Ki) in experiment [1] was 0.2 nM; at GSK3β (H350L), 10.9 nM.
Turning to `CC[C@H](C)NC(=O)O[C@@H]1CC[C@H](c2cc(NC(=O)c3ccnn3CCO)n[nH]2)C1` [Example 53], the Ki in experiment [1] is 0.1 nM; on GSK3β (H350L), 45.7 nM.
Take `CCCNC(=O)O[C@@H]1CC[C@H](c2cc(NC(=O)Cc3ccc4c(cnn4C)c3)n[nH]2)C1` [Example 54]: the values for the Ki (in experiment [1]; at GSK3β (H350L)) were 0.24 nM and 9.25 nM, respectively.
The matching figures for `CC(C)NC(=O)O[C@@H]1CC[C@H](c2cc(NC(=O)Cc3ccc4c(cnn4C)c3)n[nH]2)C1` [Example 55]: 0.1 nM and 10.4 nM.
The matching figures for `COc1cc(CC(=O)Nc2cc([C@H]3CC[C@@H](OC(=O)N(C)C(C)C)C3)[nH]n2)ccn1` [Example 58]: 0.21 nM and 9.86 nM.
Taken in the same sequence, the figures for `COc1ccc(CC(=O)Nc2cc([C@H]3CC[C@@H](OC(=O)N(C)C(C)C)C3)[nH]n2)cn1` [Example 59] were 0.15 nM and 2.89 nM.
Take `CC(C)NC(=O)O[C@@H]1CC[C@H](c2cc(NC(=O)Cc3cnn(C)c3)n[nH]2)C1` [Example 60]: the Ki in experiment [1] was determined as 0.33 nM; on GSK3β (H350L), 92.5 nM.
Taken in the same sequence, the figures for `CCC(C)(C)NC(=O)O[C@@H]1CC[C@H](c2cc(NC(=O)Cc3cnn(C)c3)n[nH]2)C1` [Example 61] were 0.11 nM and 42.3 nM.
The matching figures for `CCC(C)(C)NC(=O)O[C@@H]1CC[C@H](c2cc(NC(=O)Cc3ncc(C)o3)n[nH]2)C1` [Example 62]: 0.21 nM and 24 nM.
Take `C[C@@H](CC(F)(F)F)NC(=O)O[C@@H]1CC[C@H](c2cc(NC(=O)c3cnnn3C)n[nH]2)C1` [Example 91]: the inhibition constant Ki was 0.09 nM in experiment [1] and 28.1 nM at GSK3β (H350L).
Taken in the same sequence, the figures for `C[C@@H](CC(F)(F)F)NC(=O)O[C@@H]1CC[C@H](c2cc(NC(=O)Cc3cnn(C)c3)n[nH]2)C1` [Example 92] were 0.1 nM and 16.6 nM.
Taken in the same sequence, the figures for `Cc1coc(CC(=O)Nc2cc([C@H]3CC[C@@H](OC(=O)N[C@@H](C)CC(F)(F)F)C3)[nH]n2)n1` [Example 93] were 0.22 nM and 7.64 nM.
Taken in the same sequence, the figures for `Cc1cnc(CC(=O)Nc2cc([C@H]3CC[C@@H](OC(=O)NC(C)(C)CC(F)(F)F)C3)[nH]n2)o1` [Example 95] were 0.25 nM and 32.2 nM.
As for `COc1cc(CC(=O)Nc2cc([C@H]3CC[C@@H](OC(=O)N[C@@H](C)CF)C3)[nH]n2)ccn1` [Example 100], the Ki in experiment [1] came to 0.43 nM; at GSK3β (H350L), 41.7 nM.
The matching figures for `COc1cc(CC(=O)Nc2cc([C@H]3CC[C@@H](OC(=O)N[C@@H](C)[C@@H](C)F)C3)[nH]n2)ccn1` [Example 101]: 0.28 nM and 20.9 nM.
The matching figures for `COc1cc(CC(=O)Nc2cc([C@H]3CC[C@@H](OC(=O)NCCC(F)(F)F)C3)[nH]n2)ccn1` [Example 102]: 0.39 nM and 9.9 nM.
For `COCc1cc(C(=O)Nc2cc([C@H]3CC[C@@H](OC(=O)NCCC(F)(F)F)C3)[nH]n2)n(C)n1` [Example 103], the Ki was 1.37 nM in experiment [1] and > 47.6 nM at GSK3β (H350L).
Taken in the same sequence, the figures for `COCc1cc(C(=O)Nc2cc([C@H]3CC[C@@H](OC(=O)N[C@@H](C)C4CC4)C3)[nH]n2)n(C)n1` [Example 104] were 0.17 nM and > 47.6 nM.
In the case of `COCc1cc(C(=O)Nc2cc([C@H]3CC[C@@H](OC(=O)N[C@H](C)C4CC4)C3)[nH]n2)n(C)n1` [Example 105], the inhibition constant Ki in experiment [1] is 0.47 nM; at GSK3β (H350L) it was > 47.6 nM.
The matching figures for `Cc1cc(CC(=O)Nc2cc([C@H]3CC[C@@H](OC(=O)NC(C)(C)C)C3)[nH]n2)on1` [Example 107]: 0.19 nM and 27.1 nM.
Taken in the same sequence, the figures for `CC(C)(C)NC(=O)O[C@@H]1CC[C@H](c2cc(NC(=O)Cc3ccno3)n[nH]2)C1` [Example 108] were 0.15 nM and 38.8 nM.
Taken in the same sequence, the figures for `COc1cnc(CC(=O)Nc2cc([C@H]3CC[C@@H](OC(=O)NC(C)(C)C)C3)[nH]n2)cn1` [Example 109] were 0.68 nM and 39.2 nM.
Turning to `COCc1cc(C(=O)Nc2cc([C@H]3CC[C@@H](OC(=O)NC(C)(C)C)C3)[nH]n2)n(C)n1` [Example 111], the Ki in experiment [1] was determined as 0.38 nM; at GSK3β (H350L), 772 nM.
The matching figures for `Cn1cc(CC(=O)Nc2cc([C@H]3CC[C@@H](OC(=O)NC(C)(C)C)C3)[nH]n2)cn1` [Example 112]: 0.15 nM and 40.2 nM.
The matching figures for `Cc1ncc(CC(=O)Nc2cc([C@H]3CC[C@@H](OC(=O)NC(C)(C)C)C3)[nH]n2)s1` [Example 113]: 0.16 nM and 11.1 nM.
Taken in the same sequence, the figures for `COc1ccc(CC(=O)Nc2cc([C@H]3CC[C@@H](OC(=O)NC(C)(C)C)C3)[nH]n2)cn1` [Example 114] were 0.19 nM and 5.65 nM.
